Reference: patent US20080107719A1, “Transdermal drug delivery system” (priority 2006, published 2008)
Converted amounts (≈) assume the structure as drawn. Read-outs that look alike come from different tables or passages of the source. One block for each compound: values may come before it.

Experiments:
[1] = system: rat; conditions: in vivo; cited from earlier work
[2] = system: rat; conditions: cited from earlier work
[3] = Hygroscopicity (moisture sorption); assay type: physicochemical
[4] = Solubility in various PH medium; assay type: physicochemical; conditions: media of various pH, aqueous buffer
[5] = Stability in aqueous (PH1 and 14) tested by 3% hydrogen peroxide; assay type: physicochemical
[6] = Solubility in water
[7] = Log P (Octanol/water)
[8] = Pka determination; assay type: physicochemical
[9] = Half life (t1/2) in acidic and basic PH conditions; assay type: physicochemical; conditions: buffer
[10] = Solubility in PG; assay type: physicochemical; conditions: organic solvent or mixture

Compound: CN1CCCC1=O [N-methylpyrrolidone]
LD50 (skin) [1]: 7 g/KG bodyweight

Compound: Polysorbate80
LD50 (Rat-Oral) [2]: 34.5 ml/kg bodyweight

Compound: CC12CC3CC(C)(C1)CC(N)(C3)C2.Cl [Memantine HCl]
Hygroscopicity [3]: Slightly hygroscopic
moisture sorption ([3]; at 5-95% RH): (<1.1% moisture
solubility ([4]; in PH 2-8, read-out: Solubility in various PH medium): > 1200 µg/mL
Stability in aqueous (PH1 and 14) tested by 3% hydrogen peroxide ([5]; PH1 and 14, 3% hydrogen peroxide): Stable
stability in both acidic and basic pH conditions ([5]; acidic and basic pH): high stability
PH of 1% aqueous solution ([6]; 1% aqueous solution): (PH 5.5-6)
solubility at 24 hr ([6]; water): 45000 µg/mL
Log P (Octanol/water) [7]: 3.28
pKa [8]: 10.5

solubility ([4]; in PH1-11, read-out: Solubility (μg/ml) in various PH medium): 19.3 to 27.5 µg/mL (≈ 83.1 to 118 µM)
solubility ([6]; water): 24.5 µg/mL (≈ 105 µM)
logP ([7]; octanol/water): 2.9 to 3.12
half-life ([9]; pH 1, PH1, read-out: t1/2 (days) PH1 (converted)): 51 days
half-life ([9]; pH 11, PH11, read-out: t1/2 (days) PH11 (converted)): 57 days
pKa [8]: 11.3
solubility [10]: > 5100 µg/mL
Compound: Cc1cccc(C(C)c2c[nH]c(=S)[nH]2)c1C (stereo not drawn) [AGN 203818]
